The LD50 is the dose expected to kill half of the subjects tested. A lower LD50 goes with a more toxic substance.

The results in this text go back to patent publication US4022909A, “Method of inhibiting the growth of bacteria using quaternary ammonium compounds” (IMC Chemical Group, Inc., priority 1976, dated 1977).

Series [1] concerns Streptococcus hemolyticus. As to the kind of experiment: streak plate test, Inhibition Endpoint, Streptococcus hemolyticus. It is filed as cell-based. The following applies: Streptococcus pyogenes, Gram +, lower figure allows growth, higher figure inhibits growth.
The subject of another series is bacteria. Put plainly: antibacterial activity by the streak plate test (in words). It is filed as cell-based. The procedure: (§1) The compound was tested for antibacterial and antifungal activity by the streak plate test, which is known in the art. The test substance was incorporated into several portions of an agar medium at several known concentrations and the mixtures were placed in Petri dishes. Then streaks of test organisms were applied to the surface of the medium, the dishes were incubated under growth-promoting conditions, and then examined for growth of organisms. The results are reported as the Inhibition End-Point Range, the lower figure signifying a concentration that allows growth and the higher figure being a concentration that inhibits growth.

Series [2] deals with Pasteurella pseudotuberculosis. Put plainly: microbe, parasite or virus in culture. Type of series: cell-based. The following applies: Yersinia pseudotuberculosis, read-out: Inhibition Endpoint.
For another series, the system named is Streptococcus fecalis. As to the kind of experiment: streak plate test, Inhibition Endpoint, Streptococcus fecalis. The following applies: Gram +, lower figure allows growth, higher figure inhibits growth. It is filed as cell-based.
The next series deals with Mycobacterium ranae. As to the kind of experiment: streak plate test, Inhibition Endpoint, Mycobacterium ranae. Type of series: cell-based. The following applies: Acid fast, lower figure allows growth, higher figure inhibits growth.
A further series concerns Shigella dysenteriae. As to the kind of experiment: streak plate test, Inhibition Endpoint, Shigella dysenteriae. It is filed as cell-based. The following applies: read-out: Inhibition Endpoint.
A further series relates to Staphylococcus aureus. As to the kind of experiment: streak plate test, Inhibition Endpoint, Staphylococcus aureus. The following applies: Gram +, lower figure allows growth, higher figure inhibits growth. It is filed as cell-based.
A further series has as its system Pseudomonas auriginosa. Put plainly: streak plate test, Inhibition Endpoint, Pseudomonas auriginosa. It is filed as cell-based. The following applies: Gram -, lower figure allows growth, higher figure inhibits growth.
Another series concerns Micrococcus flavus. Put plainly: streak plate test, Inhibition Endpoint, Micrococcus flavus. It is filed as cell-based. The following applies: Gram +, lower figure allows growth, higher figure inhibits growth.
The test system of a further series is Gaffkya tetragena. As to the kind of experiment: streak plate test, Inhibition Endpoint, Gaffkya tetragena. Type of series: cell-based. The following applies: Gram +, lower figure allows growth, higher figure inhibits growth.
The test system of another series is Escherichia coli. Put plainly: streak plate test, Inhibition Endpoint, Escherichia coli. The following applies: Gram -, lower figure allows growth, higher figure inhibits growth. It is filed as cell-based.
Series [3] can be described thus: acute oral toxicity in mice. The following applies: mouse, in vivo, po.
The next series has as its system mice. As to the kind of experiment: acute oral toxicity in mice. The following applies: oral administration, mice.
In a further series the test system is fungi. Put plainly: antifungal activity by the streak plate test (in words). It is filed as cell-based. The procedure: as §1

In the case of `CCCCCCCCCCCCCC(=O)OCC(C)(C)[N+](C)(C)C.[I-]` [Example 1, (2-myristoyloxy-1,1-dimethylethyl)-trimethylammonium iodide], the MIC lay within 1 to 5 mg/L in series [1]; 1 to 5 mg/L in series [2]; 1 to 5 mg/L against Streptococcus fecalis; 1 to 5 mg/L against Mycobacterium ranae; 5 to 10 mg/L with Shigella dysenteriae; 1 to 5 mg/L against Staphylococcus aureus. Moreover, the MIC with Pseudomonas auriginosa was above 1000 mg/L; against Micrococcus flavus, 0.1 to 0.5 mg/L; against Gaffkya tetragena, 1 to 5 mg/L; with Escherichia coli, 100 to 500 mg/L. Moreover, in the series on bacteria, the antibacterial activity result is recorded as “powerful antibacterial activity”. In series [3], this compound yielded an LD50 of 1000 mg/kg. For the same compound, the LD0 with mice was 600 mg/kg. In the series on mice, the LD100 was found to be 2000 mg/kg.

Turning to `CCCCCCCCCCCC(=O)OCC(C)(C)[N+](C)(C)C.[I-]` [Example 2, (2-lauroyloxy-1,1-dimethylethyl)-trimethylammonium iodide], the MIC in series [1] fell in the range of 5 to 10 mg/L; in series [2], 5 to 10 mg/L; against Streptococcus fecalis it was 5 to 10 mg/L; with Mycobacterium ranae, 1 to 50 mg/L; in the series on Shigella dysenteriae, 10 to 50 mg/L; in the series with Staphylococcus aureus, 1 to 5 mg/L. Moreover, the MIC with Pseudomonas auriginosa was 500 to 1000 mg/L; in the series with Escherichia coli, 100 to 500 mg/L. Also, in the series on fungi, the activity against fungi result is given as “only slight activity against fungi”. For the same compound, in [3], the LD50 is 900 mg/kg. This compound also came in with an LD0 in the series with mice of 500 mg/kg. The LD100 in the series on mice worked out at 1700 mg/kg.

Take `CCCCCCCCCCCCCCCC(=O)OCC(C)(C)[N+](C)(C)C.[I-]` [Example 3, (2-palmitoyloxy-1,1-dimethylethyl)-trimethylammonium iodide]: the MIC in [1] lay in the range of 1 to 5 mg/L; in series [2] it was 100 to 500 mg/L; with Streptococcus fecalis, 1 to 5 mg/L; in the series on Mycobacterium ranae, 50 to 100 mg/L; in the series on Shigella dysenteriae it was 50 to 100 mg/L; in the series on Staphylococcus aureus, 1 to 5 mg/L. Besides, the MIC with Pseudomonas auriginosa and against Escherichia coli was above 1000 mg/L in each case. The activity against fungi entry in the series on fungi is “only slightly active against fungi”. In addition, in series [3], the LD50 turned out to be 1490 mg/kg. This compound came in with an LD0 in the series with mice of 800 mg/kg. In the series on mice, this compound showed an LD100 of 3200 mg/kg.

Regarding `CCCCCCCC(=O)OCC(C)(C)[N+](C)(C)C.[I-]` [Example 4, (2-octanoyloxy-1,1-dimethylethyl)trimethylammonium iodide], the MIC in [1] was above 1000 mg/L; in [2] it was 100 to 500 mg/L; against Streptococcus fecalis, above 1000 mg/L; against Mycobacterium ranae, 100 to 500 mg/L; with Shigella dysenteriae, above 1000 mg/L; in the series on Staphylococcus aureus, 100 to 500 mg/L. Further, the MIC against Pseudomonas auriginosa is above 1000 mg/L; against Escherichia coli it was 500 to 1000 mg/L. This compound yielded an LD50 in [3] of 1160 mg/kg. Also, the LD0 with mice is 800 mg/kg. The compound further registered an LD100 in the series on mice of 1700 mg/kg.
